Among the test systems are EKVX; HL-60; HOP-62; HOP-92; KM-20L2; M14; MOLT-4; Malme-3M; NCI-H522; OVCAR-4; SF-268; SK-MEL-2; SNB-75; UACC-62; UO-31; A498; HCC 2998; HCT-15; LOX IMVI; NCI-H226.
Test in all cases: NCI tumour cell line growth inhibition, 48 h

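Step 1: Grow cells in 96-well plates. Step 2: Expose to compound for 48 hours at 5 concentrations. Step 3: Interpolate endpoints linearly; if unreached, use highest concentration. GI50: concentration for 50% inhibition of growth.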 Calls of active or inactive are those of the source. Rule as the data show it: active = GI50 up to about 1.1 µM and inactive = higher. Bounds are passed on as bounds.

With `O=C(NN1C(=O)C(Cl)C1c1ccc([N+](=O)[O-])cc1)c1ccccc1O` (centres undefined), the GI50 in the assay with EKVX, in the assay on HL-60, in the assay on HOP-62, with HOP-92, in the assay on KM-20L2 and in the assay on M14 was > 100 µM (inactive) throughout. Moreover, the GI50 with MOLT-4 was > 100 µM (inactive); with Malme-3M it was 43 µM (inactive); with NCI-H522, > 100 µM (inactive); with OVCAR-4 it was > 100 µM (inactive); in the assay on SF-268, > 100 µM (inactive); in the assay on SK-MEL-2, > 100 µM (inactive). Besides, the GI50 with SNB-75 is 51.8 µM (inactive); in the assay with UACC-62, > 100 µM (inactive); in the assay on UO-31 it was > 100 µM (inactive).
Consider `COc1cc2cc3c4cc(OC)c(OC)cc4cc[n+]3cc2cc1OC`, for which the GI50 in the assay on A498 is > 100 µM (inactive); with EKVX it was > 100 µM (inactive); with HCC 2998, > 30.6 µM (inactive); in the assay with HCT-15, above 100 µM; in the assay on HOP-62 it was > 100 µM (inactive); with HOP-92 it was > 100 µM (inactive). Further, the GI50 in the assay on KM-20L2 was > 57.4 µM (inactive); with LOX IMVI, > 100 µM (inactive); with MOLT-4 it was > 75.5 µM (inactive); with Malme-3M, > 100 µM (inactive); in the assay with NCI-H226, 71.4 µM (inactive); in the assay on NCI-H522, 16.4 µM (inactive). Besides, the GI50 in the assay on OVCAR-4 is > 100 µM (inactive); with SF-268, 0.435 µM (active); in the assay on SK-MEL-2, > 100 µM (inactive); in the assay with SNB-75, > 89.3 µM (inactive); in the assay on UACC-62, > 100 µM (inactive); in the assay with UO-31 it was > 100 µM (inactive).
As for `S=CN1CCCCC1`, the GI50 was > 100 µM (inactive) in the assay on A498; > 100 µM (inactive) with EKVX; > 100 µM (inactive) in the assay with HCC 2998; above 100 µM in the assay with HCT-15; > 100 µM (inactive) with HL-60; > 100 µM (inactive) with HOP-62. Also, the GI50 in the assay with LOX IMVI, in the assay on M14, in the assay on MOLT-4, with Malme-3M, with NCI-H226 and with NCI-H522 was > 100 µM (inactive) throughout. Moreover, the GI50 in the assay on SF-268, in the assay with SK-MEL-2, in the assay on SNB-75, in the assay on UACC-62 and in the assay on UO-31 was > 100 µM (inactive) throughout.
Turning to `CC1(C)C(N2CCOCC2)CS1(=O)=O` (centres undefined), the GI50 with A498 was > 10 µM (inactive); in the assay on EKVX, > 10 µM (inactive); in the assay on HCC 2998, > 10 µM (inactive); in the assay with HCT-15, above 10 µM; in the assay on HL-60, > 10 µM (inactive); in the assay on HOP-62, > 10 µM (inactive). In addition, the GI50 with HOP-92, in the assay with LOX IMVI, in the assay with M14, in the assay on MOLT-4, in the assay with Malme-3M and in the assay with NCI-H226 was > 10 µM (inactive) throughout. For the same molecule, the GI50 in the assay with NCI-H522 is > 10 µM (inactive); in the assay with OVCAR-4, > 10 µM (inactive); in the assay with SF-268, > 10 µM (inactive); in the assay with SK-MEL-2, > 10 µM (inactive); in the assay with SNB-75 it was 4.98 µM (inactive); in the assay on UACC-62, > 10 µM (inactive). In addition, the GI50 with UO-31 was > 10 µM (inactive).
As for `Cc1cc(N(CCOS(C)(=O)=O)CCOS(C)(=O)=O)ccc1C=O`, the GI50 with A498 was 1.85 µM (inactive); in the assay with EKVX, 3.61 µM (inactive); with HCC 2998 it was 4.65 µM (inactive); in the assay on HCT-15, 13.2 µM; in the assay on HL-60, 2.98 µM (inactive); with HOP-92 it was 9.73 µM (inactive). In addition, the GI50 in the assay with LOX IMVI is 6.68 µM (inactive); with M14 it was 3.05 µM (inactive); with MOLT-4 it was 1.61 µM (inactive); in the assay on Malme-3M, 7.91 µM (inactive); with NCI-H522 it was 0.142 µM (active); with OVCAR-4, 18.2 µM (inactive). Besides, the GI50 was 6.56 µM (inactive) with SF-268, 21.1 µM (inactive) in the assay on SK-MEL-2, 2.43 µM (inactive) with UACC-62 and 2.88 µM (inactive) in the assay on UO-31.
`CCOC(=O)C1=C(C)N(NC(N)=O)C2(O)CCCC(=O)C12C` (centres undefined): the GI50 in the assay on A498 was > 100 µM (inactive); in the assay with HCC 2998, > 100 µM (inactive); in the assay on HCT-15, above 100 µM; in the assay with HOP-92, > 100 µM (inactive); in the assay with KM-20L2, > 100 µM (inactive); in the assay with LOX IMVI it was > 100 µM (inactive). Also, the GI50 in the assay with M14, in the assay on Malme-3M, with NCI-H226, with NCI-H522, in the assay on OVCAR-4 and in the assay on SK-MEL-2 was > 100 µM (inactive) in each case. Also, the GI50 with SNB-75 and with UACC-62 was > 100 µM (inactive) in each case.
Consider `CC(=O)NC(c1nc2cc(C)c(C)cc2[nH]1)c1nc2cc(C)c(C)cc2[nH]1`, for which the GI50 in the assay on A498 is 17.9 µM (inactive); in the assay with EKVX, 24.3 µM (inactive); in the assay on HCC 2998, 16.9 µM (inactive); in the assay with HCT-15, 21.2 µM; in the assay on HL-60, 28.2 µM (inactive); in the assay with HOP-92, 19.8 µM (inactive). Moreover, the GI50 in the assay with LOX IMVI was 19 µM (inactive); with M14, 25.4 µM (inactive); with MOLT-4, 2.86 µM (inactive); in the assay with Malme-3M, 29 µM (inactive); in the assay with NCI-H522 it was 5.12 µM (inactive); in the assay with OVCAR-4, 21.9 µM (inactive). Also, the GI50 in the assay with SF-268 was 23.2 µM (inactive); in the assay with SK-MEL-2, 36.8 µM (inactive); with SNB-75, 22.1 µM (inactive); in the assay with UACC-62, 32.7 µM (inactive); in the assay with UO-31, 25.4 µM (inactive).
In the case of `CC1(c2sccc2Cl)CC(c2sccc2Cl)=C(C#N)C(=C(C#N)C#N)N1` (centres undefined), the GI50 is 18 µM (inactive) with A498; 18.7 µM (inactive) in the assay on EKVX; 14.5 µM (inactive) in the assay on HCC 2998; 17.9 µM in the assay on HCT-15; 34.2 µM (inactive) in the assay on HL-60; 19.3 µM (inactive) with HOP-62. For the same molecule, the GI50 was 19.2 µM (inactive) in the assay with LOX IMVI; 18.6 µM (inactive) in the assay with M14; 38.7 µM (inactive) in the assay on MOLT-4; 17.6 µM (inactive) in the assay on Malme-3M; 19.1 µM (inactive) in the assay with NCI-H522; 25.1 µM (inactive) in the assay with OVCAR-4. Also, the GI50 in the assay on SF-268 was 20.2 µM (inactive); in the assay with SK-MEL-2, 20.3 µM (inactive); with UACC-62, 18.3 µM (inactive).
With `Nc1nc(N)c(N=O)c(OCC2CCCCC2)n1`, the GI50 with A498 was 18.1 µM (inactive); in the assay with EKVX, 20.5 µM (inactive); in the assay on HCC 2998, 14.9 µM (inactive); with HCT-15, 5.5 µM; with HL-60 it was 14.7 µM (inactive); with HOP-62, 14.6 µM (inactive). Further, the GI50 in the assay with HOP-92 was 7.83 µM (inactive); in the assay on LOX IMVI, 5.53 µM (inactive); in the assay on M14, 8.47 µM (inactive); in the assay on MOLT-4, 6.64 µM (inactive); with NCI-H226, 9.4 µM (inactive); in the assay with NCI-H522 it was 5.96 µM (inactive). The GI50 was 10 µM (inactive) with OVCAR-4; 8.49 µM (inactive) in the assay on SF-268; 11 µM (inactive) with SK-MEL-2; 5.01 µM (inactive) with SNB-75; 6.98 µM (inactive) in the assay with UACC-62; 5.16 µM (inactive) in the assay on UO-31.
